Laboratory results as given in PubChem BioAssay (NCI).
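Here, GI50 denotes the concentration required for 50% inhibition of growth. TGI is the concentration that stops growth completely.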

Columns and labels:
Assay in all cases: NCI tumour cell line growth inhibition, 384-well format
[1] = system: HOP-62 NSCLC
[2] = system: OVCAR-3 ovarian
[3] = system: SF-268 CNS
[4] = system: HT29 colon
[5] = system: CCRF-CEM leukemia
[6] = system: SR leukemia
[7] = system: DU-145 prostate
[8] = system: PC-3 prostate
[9] = system: NCI/ADR-RES ovarian
[10] = system: A498 renal
[11] = system: SN12C renal
[12] = system: K-562 leukemia
[13] = system: SK-MEL-2 melanoma

Compound `NC(=O)[C@@H](CC1CC1)[C@@H](CCC(F)(F)F)C(=O)N[C@H]1N=C(c2ccccc2)c2cccc(F)c2NC1=O` has a GI50 [1] of 8.29 µM, a TGI [1] of 25 µM and a GI50 [2] of 14.4 µM. It also gave a TGI [2] of 29 µM, a GI50 [3] of 7.01 µM and a TGI [3] of 24.3 µM. For the same compound, the GI50 [4] was 32.9 µM, the TGI [4] was 98 µM and the GI50 [5] was 9.79 µM. The TGI [5] was over 64.3 µM, the GI50 [6] was 13.9 µM and the TGI [6] was 27.1 µM. The GI50 [7] was 23.7 µM, the TGI [7] was 66.6 µM and the GI50 [8] was 17.6 µM. It also gave a TGI [8] of 34.2 µM, a GI50 [9] of over 86.4 µM and a TGI [9] of over 100 µM. For the same compound, the GI50 [10] was 15 µM, the TGI [10] was 43 µM and the GI50 [11] was 16.2 µM. For the same compound, the TGI [11] was 31.2 µM, the GI50 [12] was 7.18 µM and the TGI [12] was 62.6 µM. It also gave a GI50 [13] of 19.7 µM and a TGI [13] of 35.2 µM.
